Measured values taken from ChEMBL document CHEMBL4152332, “Discovery and synthesis of novel magnolol derivatives with potent anticancer activity in non-small cell lung cancer” (Eur J Med Chem, 2018).
In brackets after ≈: the same amount, converted by molar mass.

What was measured:
NCI-H1650 = test: Antiproliferative activity against human NCI-H1650 cells after 72 hrs by MTT assay; format: functional, cell-based; conditions: NCI-H1650, 72 h
Mus musculus [1] = test: Toxicity in Balb/c mouse implanted with mouse C26 cells assessed as change in body weight at 100 mg/kg, po qd treated for 10 days and measured every 2 days (RVB = 16.4%); format: organism-based; conditions: in vivo
HUVEC = test: Antimigratory activity against HUVEC after 24 to 48 hrs by phase contrast/fluorescence microscopic analysis; format: functional, cell-based; conditions: Homo sapiens
HCC827 [2] = test: Potency index, ratio of IC50 for magnolol to IC50 for test compound for antiproliferative activity against human HCC827 cells after 72 hrs by MTT assay; format: functional
NCI-H1975 [3] = test: Cell cycle arrest in human NCI-H1975 cells assessed as reduction in accumulation at S phase after 24 hrs by propidium iodide staining-based flow cytometric analysis; format: functional
NCI-H1975 [4] = test: Cell cycle arrest in human NCI-H1975 cells assessed as increase in accumulation at G0/G1 phase after 24 hrs by propidium iodide staining-based flow cytometric analysis; format: functional
NCI-H1975 [5] = test: Induction of apoptosis in human NCI-H1975 cells assessed as early apoptotic cells at 10 uM after 48 hrs by annexin V/FITC-propidium iodide staining-based flow cytometric method ( Rvb = 6.09%); format: functional
PC-9 = test: Antiproliferative activity against human PC9 cells after 72 hrs by MTT assay; format: functional, cell-based; conditions: PC-9, 72 h
NCI-H460 [6] = test: Potency index, ratio of IC50 for honokiol to IC50 for test compound for antiproliferative activity against human H460 cells after 72 hrs by MTT assay; format: functional
NCI-H1975 [7] = test: Cell cycle arrest in human NCI-H1975 cells assessed as accumulation at G2/M phase at 20 uM after 24 hrs by propidium iodide staining-based flow cytometric analysis (reference value: 20.11%); format: functional
NCI-H1975 [8] = test: Cell cycle arrest in human NCI-H1975 cells assessed as accumulation at S phase at 10 uM after 24 hrs by propidium iodide staining-based flow cytometric analysis (reference value: 22.93%); format: functional
NCI-H1975 [9] = test: Cell cycle arrest in human NCI-H1975 cells assessed as accumulation at G2/M phase at 5 uM after 24 hrs by propidium iodide staining-based flow cytometric analysis (reference value: 20.11%); format: functional
NCI-H441 = test: Antiproliferative activity against human H441 cells after 72 hrs by MTT assay; format: functional, cell-based; conditions: NCI-H441, 72 h
NCI-H1975 [10] = test: Induction of apoptosis in human NCI-H1975 cells assessed as viable cells at 20 uM after 48 hrs by annexin V/FITC-propidium iodide staining-based flow cytometric method ( Rvb = 82.5%); format: functional; conditions: NCI-H1975, 48 h, read-out: Activity
NCI-H1975 [11] = test: Induction of apoptosis in human NCI-H1975 cells assessed as late apoptotic cells at 20 uM after 48 hrs by annexin V/FITC-propidium iodide staining-based flow cytometric method ( Rvb = 10.4%); format: functional
HCC827 [12] = test: Potency index, ratio of IC50 for honokiol to IC50 for test compound for antiproliferative activity against human HCC827 cells after 72 hrs by MTT assay; format: functional
NCI-H1975 [13] = test: Induction of apoptosis in human NCI-H1975 cells assessed as viable cells at 10 uM after 48 hrs by annexin V/FITC-propidium iodide staining-based flow cytometric method ( Rvb = 82.5%); format: functional; conditions: NCI-H1975, 48 h, read-out: Activity
NCI-H1975 [14] = test: Cell cycle arrest in human NCI-H1975 cells assessed as accumulation at G2/M phase at 10 uM after 24 hrs by propidium iodide staining-based flow cytometric analysis (reference value: 20.11%); format: functional
NCI-H460 [15] = test: Antiproliferative activity against human H460 cells after 72 hrs by MTT assay; format: functional, cell-based; conditions: NCI-H460, 72 h
[16] = Apparent aqueous solubility of the compound by HPLC analysis; format: physicochemical; conditions: aqueous solution
NCI-H1975 [17] = test: Induction of apoptosis in human NCI-H1975 cells after 48 hrs by annexin V/FITC-propidium iodide staining-based flow cytometric method; format: functional, cell-based
NCI-H1975 [18] = test: Potency index, ratio of IC50 for magnolol to IC50 for test compound for antiproliferative activity against human NCI-H1975 cells after 72 hrs by MTT assay; format: functional
NCI-H1975 [19] = test: Cell cycle arrest in human NCI-H1975 cells assessed as accumulation at G0/G1 phase at 10 uM after 24 hrs by propidium iodide staining-based flow cytometric analysis (reference value: 56.11%); format: functional
NCI-H1975 [20] = test: Induction of apoptosis in human NCI-H1975 cells assessed as necrotic cells at 10 uM after 48 hrs by annexin V/FITC-propidium iodide staining-based flow cytometric method ( Rvb = 1.01%); format: functional
[21] = Antiproliferative activity against human SPC-A1 cells after 72 hrs by MTT assay; format: functional, cell-based; conditions: SPCA1, 72 h
[22] = Antitumor activity against mouse C26 cells implanted in Balb/c mouse assessed as tumor growth inhibition at 100 mg/kg, po qd and measured every 2 days relative to control; format: functional; conditions: 48 h, read-out: TGI
NCI-H1975 [23] = test: Cell cycle arrest in human NCI-H1975 cells assessed as reduction in accumulation at G2/M phase after 24 hrs by propidium iodide staining-based flow cytometric analysis; format: functional
NCI-H1975 [24] = test: Induction of apoptosis in human NCI-H1975 cells assessed as late apoptotic cells at 10 uM after 48 hrs by annexin V/FITC-propidium iodide staining-based flow cytometric method ( Rvb = 10.4%); format: functional
A549 = test: Antiproliferative activity against human A549 cells after 72 hrs by MTT assay; format: functional, cell-based; conditions: A549, 72 h
HCC827 [25] = test: Antiproliferative activity against human HCC827 cells after 72 hrs by MTT assay; format: functional, cell-based; conditions: HCC827, 72 h
NCI-H1975 [26] = test: Potency index, ratio of IC50 for honokiol to IC50 for test compound for antiproliferative activity against human NCI-H1975 cells after 72 hrs by MTT assay; format: functional
Mus musculus [27] = test: Toxicity in Balb/c mouse implanted with mouse C26 cells assessed as mouse death at 100 mg/kg, po qd treated for 10 days; format: organism-based; conditions: in vivo, 240 h
NCI-H1975 [28] = test: Induction of apoptosis in human NCI-H1975 cells assessed as late apoptotic cells at 5 uM after 48 hrs by annexin V/FITC-propidium iodide staining-based flow cytometric method ( Rvb = 10.4%); format: functional
NCI-H1975 [29] = test: Cell cycle arrest in human NCI-H1975 cells assessed as accumulation at S phase at 5 uM after 24 hrs by propidium iodide staining-based flow cytometric analysis (reference value: 22.93%); format: functional
NCI-H1975 [30] = test: Induction of apoptosis in human NCI-H1975 cells assessed as viable cells at 5 uM after 48 hrs by annexin V/FITC-propidium iodide staining-based flow cytometric method ( Rvb = 82.5%); format: functional; conditions: NCI-H1975, 48 h, read-out: Activity
NCI-H1975 [31] = test: Cell cycle arrest in human NCI-H1975 cells assessed as accumulation at G0/G1 phase at 5 uM after 24 hrs by propidium iodide staining-based flow cytometric analysis (reference value: 56.11%); format: functional
NCI-H460 [32] = test: Potency index, ratio of IC50 for magnolol to IC50 for test compound for antiproliferative activity against human H460 cells after 72 hrs by MTT assay; format: functional
NCI-H358 = test: Antiproliferative activity against human NCI-H358 cells after 72 hrs by MTT assay; format: functional, cell-based; conditions: NCI-H358, 72 h
NCI-H1975 [33] = test: Induction of apoptosis in human NCI-H1975 cells assessed as necrotic cells at 5 uM after 48 hrs by annexin V/FITC-propidium iodide staining-based flow cytometric method ( Rvb = 1.01%); format: functional
NCI-H1975 [34] = test: Induction of apoptosis in human NCI-H1975 cells assessed as necrotic cells at 20 uM after 48 hrs by annexin V/FITC-propidium iodide staining-based flow cytometric method ( Rvb = 1.01%); format: functional
NCI-H1975 [35] = test: Cell cycle arrest in human NCI-H1975 cells assessed as accumulation at S phase at 20 uM after 24 hrs by propidium iodide staining-based flow cytometric analysis (reference value: 22.93%); format: functional
NCI-H1975 [36] = test: Induction of apoptosis in human NCI-H1975 cells assessed as early apoptotic cells at 5 uM after 48 hrs by annexin V/FITC-propidium iodide staining-based flow cytometric method ( Rvb = 6.09%); format: functional
NCI-H1975 [37] = test: Antiproliferative activity against human NCI-H1975 cells after 72 hrs by MTT assay; format: functional, cell-based; conditions: NCI-H1975, 72 h
NCI-H1975 [38] = test: Induction of apoptosis in human NCI-H1975 cells assessed as early apoptotic cells at 20 uM after 48 hrs by annexin V/FITC-propidium iodide staining-based flow cytometric method ( Rvb = 6.09%); format: functional
NCI-H1975 [39] = test: Cell cycle arrest in human NCI-H1975 cells assessed as accumulation at G0/G1 phase at 20 uM after 24 hrs by propidium iodide staining-based flow cytometric analysis (reference value: 56.11%); format: functional

C=CCc1ccc(O)c(-c2cc(CC=C)cc(CN3CCN(CCOC)CC3)c2O)c1
IC50 (NCI-H1650): 5.12 µM
Activity (Mus musculus [1]): 12.4%
Activity (HUVEC): Dose-dependent effect
Ratio IC50 (HCC827 [2]): 8
Activity (NCI-H1975 [3]): Dose-dependent effect
Activity (NCI-H1975 [4]): Dose-dependent effect
Activity (NCI-H1975 [5]): 8.79%
IC50 (PC-9): 13.5 µM
Ratio IC50 (NCI-H460 [6]): 4
Activity (NCI-H1975 [7]): 16.86%
Activity (NCI-H1975 [8]): 21.85%
Activity (NCI-H1975 [9]): 18.05%
IC50 (NCI-H441): 10.2 µM
viability at 20 µM (NCI-H1975 [10]): 22.9%
Activity (NCI-H1975 [11]): 51.1%
Ratio IC50 (HCC827 [12]): 4
viability at 10 µM (NCI-H1975 [13]): 68.4%
Activity (NCI-H1975 [14]): 11.15%
IC50 (NCI-H460 [15]): 5.92 µM
solubility [16]: 120 µg/mL (≈ 284 µM)
Activity (NCI-H1975 [17]): Dose-dependent effect
Ratio IC50 (NCI-H1975 [18]): 8
Activity (NCI-H1975 [19]): 66.25%
Activity (NCI-H1975 [20]): 0.31%
IC50 [21]: 7.27 µM
inhibition in vivo at 100 mg/kg [22]: 4.14%
Activity (NCI-H1975 [23]): Dose-dependent effect
Activity (NCI-H1975 [24]): 22.5%
IC50 (A549): 7.89 µM
IC50 (HCC827 [25]): 6.8 µM
Ratio IC50 (NCI-H1975 [26]): 4
Activity (Mus musculus [27]): Non-Toxic
Activity (NCI-H1975 [28]): 22.8%
Activity (NCI-H1975 [29]): 17.71%
viability at 5 µM (NCI-H1975 [30]): 72.6%
Activity (NCI-H1975 [31]): 61.59%
Ratio IC50 (NCI-H460 [32]): 8
IC50 (NCI-H358): 7.49 µM
Activity (NCI-H1975 [33]): 0.47%
Activity (NCI-H1975 [34]): 0.9%
Activity (NCI-H1975 [35]): 11.17%
Activity (NCI-H1975 [36]): 6.13%
IC50 (NCI-H1975 [37]): 7.12 µM
Activity (NCI-H1975 [38]): 25.1%
Activity (NCI-H1975 [39]): 69.91%
